What was measured:
Assay type in all cases: cell-based
Details in all cases: PBMC, human PBMCs, 24 hours incubation
TNFα = assay: PBMC cytokine profiling assay, TNFα induction
Description: (§1) Certain compounds disclosed herein we tested according to the procedure described below. Additionally, certain reference compounds were prepared and tested along with the compounds of the present disclosure.
(§2) Compounds were dissolved and stored in DMSO (Sigma-Aldrich, St. Louis, MO) at 10 mM concentration.
(§3) Cryopreserved human PBMCs isolated from healthy donors were purchased from StemCell Technologies (Vancouver, Canada). Cell culture medium used was RPMI with L-Glutamine (Mediatech, Manassas, VA) supplemented with 10% fetal bovine serum (Hyclone, GE Healthcare, Logan, UT) and Penicillin-Streptomycin (Mediatech). Human TNFα, IL12p40, and IFNα2a 384-well Assay capture plates, standards, buffers and processing reagents were obtained from MesoScale Discovery Technologies (MSD; Rockville, MD).
(§4) Cryopreserved human PBMCs (1×10e8 cells/ml) were thawed at 37° C. and resuspended in 25 mL warm cell culture medium. The cells were pelleted at 200×g (Beckman Avanti J-E) for 5 min and resuspended in 20 mL of fresh culture media. Cells were counted using a Cellometer (Nexcelcom Bioscience), adjusted to 2×10e6 cells, and incubated for 2 hours in an incubator set at 37° C., 5% CO2 to recover from cryopreservation. Compounds were serially diluted in DMSO at half-log steps to generate a 10-point dose range. Using a Bravo pipette equipped with a 384 well head (Agilent), 0.4 μL of compound was transferred to each well of a 384 well black, clear bottom plate (Greiner Bio-One, Germany) containing 30 μL of cell culture medium. Recovered PBMCs were then dispensed into the assay plate at 50 μL per well (100k cells/well) using the MicroFlow multichannel dispenser (Biotek). Final DMSO concentration was 0.5%. DMSO was used as the negative control. The plates were incubated for 24 hours at 37° C. PBMCs in the assay plate were pelleted by centrifugation (Beckman Avanti J-E) at 200×g for 5 min.
(§5) Using a Biomek FX 384 well pipetting station (Beckman), conditioned culture medium (CCM) from the assay plate was transferred to MSD capture plates customized for each cytokine. For IFNα and IL12-p40 detection, 25 μL and 20 μL of CCM were added directly to each capture plate, respectively. For TNFα detection, CCM was diluted 1:9 in fresh culture medium, and 20 μL of diluted CCM was used. Serially diluted calibration standards for each cytokine were used to generate standard curves and establish assay linearity. The plates were sealed and incubated overnight at 4° C. in a plate shaker (Titer Plate) set at 200 rpm. On the following day, antibodies specific for each cytokine were diluted 1:50 in MSD Diluent 100 antibody dilution buffer. Diluted antibodies were added to corresponding capture plates at 10 μL/well, and incubated at RT for 1-2 hrs in the shaker. The plates were washed with PBST buffer (3×, 60 μl/well) using a Biotek Multiflow plate washer. MSD Read Buffer diluted to 2× in deionized water and 35 μL/well was added via Biomek FX instrument. The plates were read immediately in a MSD6000 reader. Data were normalized to positive and negative controls in each assay plate. AC50 values represent compound concentrations at half-maximal effect based on normalized percent activation and calculated by non-linear regression using Pipeline Pilot software (Accelrys, San Diego, CA).

IL12p40 = assay: PBMC cytokine profiling assay, IL12-p40 induction
Description: as §1, §2, §3, §4, §5

IFNα = assay: PBMC cytokine profiling assay, IFNα induction
Description: as §1, §2, §3, §4, §5

SMILES | AC50 (TNFα; Homo sapiens, 24 h) | AC50 (IL12p40; Homo sapiens, 24 h) | AC50 (IFNα; Homo sapiens, 24 h) | AC50 (TNFα) | AC50 (IL12p40) | AC50 (IFNα)
CCCC[C@H](CO)Nc1nc(N)nc2ccccc12 [Example 47B, (R)-2-((2-aminoquinazolin-4-yl)amino)hexan-1-ol] | 2.7 µM | 2 µM | > 50 µM | – | – | –
CCCC[C@@H](CO)Nc1nc(N)nc2ccccc12 [Example 48, (S)-2-((2-aminoquinazolin-4-yl)amino)hexan-1-ol] | 0.85 µM | 0.71 µM | 0.57 µM | – | – | –
C[C@@H](CN)Nc1nc(N)nc2cccnc12 [Example 49, (S)—N^4-(1-aminopropan-2-yl)pyrido[3,2-d]pyrimidine-2,4-diamine] | – | – | – | 22.4 µM | 18.1 µM | 41.6 µM
CCCC[C@H](CN)Nc1nc(N)nc2cccnc12 [Example 50, (R)—N^4-(1-aminohexan-2-yl)pyrido[3,2-d]pyrimidine-2,4-diamine] | 26.9 µM | 23.1 µM | > 50 µM | – | – | –
CCCC[C@H](CNS(C)(=O)=O)Nc1nc(N)nc2cccnc12 [Example 52, (R)—N-(2-((2-aminopyrido[3,2-d]pyrimidin-4-yl)amino)hexyl)methanesulfonamide] | 3.2 µM | 3.6 µM | > 50 µM | – | – | –
CCCC[C@](C)(CNS(C)(=O)=O)Nc1nc(N)nc2cccnc12 [Example 53, (R)—N-(2-((2-aminopyrido[3,2-d]pyrimidin-4-yl)amino)-2-methylhexyl)methanesulfonamide] | 0.26 µM | 0.28 µM | 3.9 µM | – | – | –
CCCC[C@@H](Nc1nc(N)nc2cccnc12)C(=O)NCCO [Example 54, (R)-2-((2-aminopyrido[3,2-d]pyrimidin-4-yl)amino)-N-(2-hydroxyethyl)hexanamide] | 34 µM | 42.5 µM | > 50 µM | – | – | –
CCCC[C@@H](Nc1nc(N)nc2cccnc12)c1ncc[nH]1 [Example 55, (R)—N^4-(1-(1H-imidazol-2-yl)pentyl)pyrido[3,2-d]pyrimidine-2,4-diamine] | 23.9 µM | 21.5 µM | 28.8 µM | – | – | –
CCCC[C@@H](Nc1nc(N)nc2cccnc12)c1nnc[nH]1 [Example 56, (R)—N^4-(1-(4H-1,2,4-triazol-3-yl)pentyl)pyrido[3,2-d]pyrimidine-2,4-diamine] | 3.6 µM | 3.4 µM | 1.9 µM | – | – | –
CCCC[C@H](CO)Nc1nc(N)nc2c(C)ccnc12 [Example 57, (R)-2-((2-amino-8-methylpyrido[3,2-d]pyrimidin-4-yl)amino)hexan-1-ol] | 11 µM | 9.7 µM | > 50 µM | – | – | –
CCCC[C@@H](CO)Nc1nc(N)nc2c(C)ccnc12 [Example 58, (S)-2-((2-amino-8-methylpyrido[3,2-d]pyrimidin-4-yl)amino)hexan-1-ol] | 3.9 µM | 3.8 µM | 4.1 µM | – | – | –
CCCC[C@@](C)(CO)Nc1nc(N)nc2cccnc12 [Example 60, (S)-2-((2-aminopyrido[3,2-d]pyrimidin-4-yl)amino)-2-methylhexan-1-ol] | 2.6 µM | 2.3 µM | 7.9 µM | – | – | –
CCCCC(C)(CO)Nc1nc(N)nc2cc(F)cnc12 (stereo not drawn) [Example 63, 2-((2-amino-7-fluoropyrido[3,2-d]pyrimidin-4-yl)amino)-2-methylhexan-1-ol] | 0.41 µM | 0.43 µM | 22.4 µM | – | – | –
CCCC[C@](C)(CNC(C)=O)Nc1nc(N)nc2cc(C)cnc12 [Example 66, (R)—N-(2-((2-amino-7-methylpyrido[3,2-d]pyrimidin-4-yl)amino)-2-methylhexyl)acetamide] | 0.04 µM | 0.03 µM | 1.6 µM | – | – | –
CCC[C@@H](CO)Nc1nc(N)nc2cc(F)c(C)nc12 [Example 67, (S)-2-((2-amino-7-fluoro-6-methylpyrido[3,2-d]pyrimidin-4-yl)amino)pentan-1-ol] | 6.3 µM | 3.9 µM | 23 µM | – | – | –
CCCC[C@H](CO)Nc1nc(N)nc2cc(O)cnc12 [Example 68, (R)-2-amino-4-((1-hydroxyhexan-2-yl)amino)pyrido[3,2-d]pyrimidin-7-ol] | 11.1 µM | 14.2 µM | > 50 µM | – | – | –
C=Cc1cnc2c(N[C@@H](CO)CCCC)nc(N)nc2c1 [Example 70, (R)-2-((2-amino-7-vinylpyrido[3,2-d]pyrimidin-4-yl)amino)hexan-1-ol] | 3.3 µM | 2.7 µM | > 50 µM | – | – | –
CCCC[C@H](CO)Nc1nc(N)nc2cc(CC)cnc12 [Example 71, (R)-2-((2-amino-7-ethylpyrido[3,2-d]pyrimidin-4-yl)amino)hexan-1-ol] | 2.6 µM | 2.7 µM | > 50 µM | – | – | –
C=CCC[C@H](CO)Nc1nc(N)nc2cccnc12 [Example 72, (R)-2-((2-aminopyrido[3,2-d]pyrimidin-4-yl)amino)hex-5-en-1-ol] | 7.2 µM | 7 µM | > 50 µM | – | – | –
CC(F)CC[C@H](CO)Nc1nc(N)nc2cccnc12 (stereo partly drawn) [Example 73, (2R)-2-((2-aminopyrido[3,2-d]pyrimidin-4-yl)amino)-5-fluorohexan-1-ol] | 1.3 µM | 1.3 µM | > 50 µM | – | – | –
Nc1nc(N[C@@H](CO)CCCCF)c2ncccc2n1 [Example 74, (R)-2-((2-aminopyrido[3,2-d]pyrimidin-4-yl)amino)-6-fluorohexan-1-ol] | 9.1 µM | 9.6 µM | > 50 µM | – | – | –
CCCCC[C@H](CO)Nc1nc(N)nc2cccnc12 [Example 75, (R)-2-((2-aminopyrido[3,2-d]pyrimidin-4-yl)amino)heptan-1-ol] | 4 µM | 3.3 µM | 20.3 µM | – | – | –
CC(C)CC[C@H](CO)Nc1nc(N)nc2cccnc12 [Example 76, (R)-2-((2-aminopyrido[3,2-d]pyrimidin-4-yl)amino)-5-methylhexan-1-ol] | 36.9 µM | 31.8 µM | 36.9 µM | – | – | –
C=C(C)CC[C@H](CO)Nc1nc(N)nc2cccnc12 [Example 77, (R)-2-((2-aminopyrido[3,2-d]pyrimidin-4-yl)amino)-5-methylhex-5-en-1-ol] | 43.6 µM | 43.6 µM | 43.6 µM | – | – | –
CC(F)(F)CC[C@H](CO)Nc1nc(N)nc2cccnc12 [Example 78, (R)-2-((2-aminopyrido[3,2-d]pyrimidin-4-yl)amino)-5,5-difluorohexan-1-ol] | 16 µM | 14.2 µM | > 50 µM | – | – | –
CCC(F)(F)C[C@H](CO)Nc1nc(N)nc2cccnc12 [Example 79, (R)-2-((2-aminopyrido[3,2-d]pyrimidin-4-yl)amino)-4,4-difluorohexan-1-ol] | 9.1 µM | 11.5 µM | > 50 µM | – | – | –
CCC[C@](C)(CO)Nc1nc(N)nc2cccnc12 [Example 80, (R)-2-((2-aminopyrido[3,2-d]pyrimidin-4-yl)amino)-2-methylpentan-1-ol] | 2.7 µM | 2.4 µM | > 50 µM | – | – | –
C=CC[C@](C)(CO)Nc1nc(N)nc2cccnc12 [Example 81, (R)-2-((2-aminopyrido[3,2-d]pyrimidin-4-yl)amino)-2-methylpent-4-en-1-ol] | 7.6 µM | 7.8 µM | > 50 µM | – | – | –
CCCC[C@H](CO)Nc1nc(N)nc2cc(Br)cnc12 [Example 82, (R)-2-((2-amino-7-bromopyrido[3,2-d]pyrimidin-4-yl)amino)hexan-1-ol] | 16.6 µM | 14.3 µM | > 50 µM | – | – | –
